Measurements published in ChEMBL document CHEMBL1201862, “PubChem BioAssay data set” (2004).
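Grown in 96-well plates, cells were treated for 48 hours with each compound at five concentrations. Insufficient inhibition: endpoint recorded as highest concentration tested. The concentration for 50% growth inhibition is given as GI50.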 Activity calls are given as the source filed them. Rule as the data show it: active = GI50 up to about 1.1 µM and inactive = higher.

Columns and labels:
Experiment in all cases: NCI tumour cell line growth inhibition, 48 h
Malme-3M = test system: Malme-3M
NCI-H23 = test system: NCI-H23
HCT-15 = test system: HCT-15
UACC-62 = test system: UACC-62
HCT-116 = test system: HCT-116
DU-145 = test system: DU-145
M14 = test system: M14
HOP-92 = test system: HOP-92
KM12 = test system: KM12
K562 = test system: K562
SK-MEL-5 = test system: SK-MEL-5
ACHN = test system: ACHN
OVCAR-4 = test system: OVCAR-4
HOP-62 = test system: HOP-62
NCI-H460 = test system: NCI-H460
BT-549 = test system: BT-549
RXF 393 = test system: RXF 393
SF-539 = test system: SF-539
Hs-578T = test system: Hs-578T

| Structure (SMILES) | GI50 (Malme-3M) | GI50 (NCI-H23) | GI50 (HCT-15) | GI50 (UACC-62) | GI50 (HCT-116) | GI50 (DU-145) | GI50 (M14) | GI50 (HOP-92) | GI50 (KM12) | GI50 (K562) | GI50 (SK-MEL-5) | GI50 (ACHN) | GI50 (OVCAR-4) | GI50 (HOP-62) | GI50 (NCI-H460) | GI50 (BT-549) | GI50 (RXF 393) | GI50 (SF-539) | GI50 (Hs-578T) |
| --- | --- | --- | --- | --- | --- | --- | --- | --- | --- | --- | --- | --- | --- | --- | --- | --- | --- | --- | --- |
| Oc1ccc2ccccc2c1NCn1nc(CCCCCCCCc2nn(CNc3c(O)ccc4ccccc34)c(=S)o2)oc1=S | > 100 µM (inactive) | > 100 µM (inactive) | 43.1 µM | > 100 µM (inactive) | 6.49 µM (inactive) | > 100 µM (inactive) | 44.8 µM (inactive) | > 100 µM (inactive) | 28.9 µM (inactive) | > 100 µM (inactive) | 44.5 µM (inactive) | > 100 µM (inactive) | > 100 µM (inactive) | > 100 µM (inactive) | > 100 µM (inactive) | > 100 µM (inactive) | – | – | – |
| C/C1=C\CC[C@@]2(C)O[C@@H]2C[C@@H]2[C@H](C/C(C)=C/CC1)OC(=O)C21CC1 | > 100 µM (inactive) | – | 27.7 µM | 90.8 µM (inactive) | 35 µM (inactive) | 59.7 µM (inactive) | > 100 µM (inactive) | – | > 100 µM (inactive) | 21 µM (inactive) | 93.5 µM (inactive) | 50.6 µM (inactive) | – | > 100 µM (inactive) | 56.8 µM (inactive) | 44.9 µM (inactive) | > 100 µM (inactive) | > 100 µM (inactive) | – |
| COC1/C=C/C(C)C(C(C)C(OC)C(C)CCC(=O)C(C)C(CC(=O)O)OC)OC(=O)/C=C/C=C(\C)CC(OC)CC2=CC(=O)O[C@H](C2)C(C)C(OC)CC(OC)/C=C/C(C)C(OC)C1 (stereo partly drawn) | – | 0.879 µM (active) | 0.885 µM | 0.315 µM (active) | – | 0.548 µM (active) | 0.222 µM (active) | 0.124 µM (active) | 0.452 µM (active) | 1.79 µM (inactive) | 0.455 µM (active) | 0.562 µM (active) | 0.275 µM (active) | 0.45 µM (active) | 0.195 µM (active) | – | – | – | 0.0759 µM (active) |
| CC(=O)c1c(-c2ccc(Cl)cc2)c(C#N)c(=S)n(C2OC(CO)C(O)C(O)C2O)c1C (stereo not drawn) | 67 µM (inactive) | 45.4 µM (inactive) | 82 µM | 22.3 µM (inactive) | 47 µM (inactive) | > 100 µM (inactive) | 57.7 µM (inactive) | 13.1 µM (inactive) | 40.4 µM (inactive) | 32.4 µM (inactive) | 37.2 µM (inactive) | 42.3 µM (inactive) | 38.5 µM (inactive) | 65 µM (inactive) | 37 µM (inactive) | – | 98.2 µM (inactive) | 46.7 µM (inactive) | – |
| CC(=O)OC1C(Oc2c(C)cc3c(c2O)[C@@H](C)CC[C@@H]3[C@@H](C)CCC=C(C)C)OCC(O)C1O (stereo partly drawn) | – | 17.9 µM (inactive) | 17.5 µM | 18.3 µM (inactive) | 18.2 µM (inactive) | 16.2 µM (inactive) | 16.9 µM (inactive) | – | 15.9 µM (inactive) | 13.5 µM (inactive) | 18.1 µM (inactive) | 20.2 µM (inactive) | – | 17.3 µM (inactive) | 16.9 µM (inactive) | – | – | 18.5 µM (inactive) | 21.5 µM (inactive) |
| CCc1ccc2nccc(NCCCN(C)C)c2c1[N+](=O)[O-] | > 100 µM (inactive) | > 100 µM (inactive) | > 10 µM | > 100 µM (inactive) | 41.2 µM (inactive) | > 100 µM (inactive) | 28.8 µM (inactive) | > 100 µM (inactive) | > 100 µM (inactive) | 42.8 µM (inactive) | 44.3 µM (inactive) | > 100 µM (inactive) | 90.2 µM (inactive) | > 100 µM (inactive) | > 100 µM (inactive) | – | 71.8 µM (inactive) | > 10 µM (inactive) | 30.9 µM (inactive) |
| C=CC(C)(C)C(=C)C(=O)Nc1ccccc1I | – | > 100 µM (inactive) | > 100 µM | > 100 µM (inactive) | 81.8 µM (inactive) | > 100 µM (inactive) | > 100 µM (inactive) | > 100 µM (inactive) | > 100 µM (inactive) | > 100 µM (inactive) | > 100 µM (inactive) | > 100 µM (inactive) | > 100 µM (inactive) | > 100 µM (inactive) | > 100 µM (inactive) | – | > 100 µM (inactive) | – | > 100 µM (inactive) |
| CCN(C(=S)N[C@H](C(=O)N[C@@H](C)C(=O)OC)C(C)C)c1ccccc1 | 21.8 µM (inactive) | > 100 µM (inactive) | 63.1 µM | 76.7 µM (inactive) | 70.8 µM (inactive) | > 100 µM (inactive) | 53.2 µM (inactive) | 51.4 µM (inactive) | > 100 µM (inactive) | 22.7 µM (inactive) | 71.4 µM (inactive) | 64.4 µM (inactive) | > 100 µM (inactive) | 91.6 µM (inactive) | 33.6 µM (inactive) | > 100 µM (inactive) | 62.1 µM (inactive) | 28 µM (inactive) | – |
| COc1ccccc1C(=O)c1c(N2CCCCC2)c(=O)c1=O | > 100 µM (inactive) | > 100 µM (inactive) | > 100 µM | > 100 µM (inactive) | > 100 µM (inactive) | > 100 µM (inactive) | > 100 µM (inactive) | > 100 µM (inactive) | 78.7 µM (inactive) | > 100 µM (inactive) | > 100 µM (inactive) | > 100 µM (inactive) | > 100 µM (inactive) | > 100 µM (inactive) | > 100 µM (inactive) | > 100 µM (inactive) | > 100 µM (inactive) | > 100 µM (inactive) | – |
| CN(C)C1C(CO)OC(n2cnc3c(N)ncnc32)C1O (stereo not drawn) | – | > 100 µM (inactive) | > 100 µM | > 100 µM (inactive) | > 100 µM (inactive) | > 100 µM (inactive) | > 100 µM (inactive) | – | > 100 µM (inactive) | > 100 µM (inactive) | > 100 µM (inactive) | > 100 µM (inactive) | > 100 µM (inactive) | > 100 µM (inactive) | > 100 µM (inactive) | > 100 µM (inactive) | – | > 100 µM (inactive) | > 100 µM (inactive) |
| Cc1ccc(S(=O)(=O)NC(CCC(=O)NNc2ccccc2)C(=O)NNc2ccccc2)cc1 (stereo not drawn) | 31.7 µM (inactive) | 61.4 µM (inactive) | 15.4 µM | 2.87 µM (inactive) | 30.7 µM (inactive) | – | 9.53 µM (inactive) | > 100 µM (inactive) | 2.84 µM (inactive) | 85.9 µM (inactive) | 98.4 µM (inactive) | 2.13 µM (inactive) | 25.8 µM (inactive) | > 100 µM (inactive) | 16.8 µM (inactive) | > 100 µM (inactive) | > 100 µM (inactive) | 17.5 µM (inactive) | 64.1 µM (inactive) |
| COC1=CCC2=C(CCN(C(=O)C3CC3)C2Cc2ccc(OC)c(O)c2)C1 (stereo not drawn) | 88.9 µM (inactive) | 26.7 µM (inactive) | 22.1 µM | 48.8 µM (inactive) | 36.6 µM (inactive) | > 100 µM (inactive) | 45 µM (inactive) | 27.9 µM (inactive) | 37.2 µM (inactive) | 25.8 µM (inactive) | 28.6 µM (inactive) | > 100 µM (inactive) | 42.5 µM (inactive) | 61.8 µM (inactive) | 42 µM (inactive) | – | 13.5 µM (inactive) | 67 µM (inactive) | 69.2 µM (inactive) |
